From PMC11249646, “Small-Molecule Disruptors of the Interaction between Calcium- and Integrin-Binding Protein 1 and Integrin αIIbβ3 as Novel Antiplatelet Agents” (ACS Pharmacology & Translational Science, 2024)
Where two headings read alike, the source gives them in different places.

Experiments:
[1] = target: T1, GST-CIB1 : F-scrambled peptide (Homo sapiens, UniProt Q99828); assay: FP scrambled-peptide counter screen, 1536-well format; assay type: binding; settings: for Confirm? (counterscreen): YES/NO
T1 construct: made in house; host or cells: BL-21 plus RIL cells (E. coli)
T1 sequence (Q99828 1-191): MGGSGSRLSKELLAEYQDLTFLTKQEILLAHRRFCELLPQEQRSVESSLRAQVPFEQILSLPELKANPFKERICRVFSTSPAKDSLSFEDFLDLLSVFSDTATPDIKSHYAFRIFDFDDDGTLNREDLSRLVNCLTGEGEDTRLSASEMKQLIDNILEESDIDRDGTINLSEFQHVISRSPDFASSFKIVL

[2] = target: T2, CIB1 and αIIb interaction (CIB1-GST : F-αIIb peptide) (Homo sapiens, UniProt Q99828); assay: FP assay, 1536-well qHTS format (primary and confirmatory screen); assay type: binding
T2 construct: made in house; host or cells: BL-21 plus RIL cells (E. coli)
T2 sequence (Q99828 1-191): T1 sequence (Q99828 1-191)

[3] = counterscreen, qHTS curve class, negative sign = inhibitory curve
[4] = counterscreen, read-out: IC50 [μM] (counterscreen)
[5] = confirmatory screen, qHTS curve class, negative sign = inhibitory curve
[6] = confirmatory screen, read-out: IC50 [μM] (confirmatory screen)
[7] = qHTS FP screen hits, Table S2, negative = inhibition
[8] = qHTS FP screen hits, Table S2, one class per curve where COUNT > 1, negative sign = inhibitory curve
[9] = qHTS FP screen hits, Table S2, read-out: IC50
[10] = Table S3, counterscreen, negative = inhibition
[11] = Table S3, confirmatory screen, qHTS curve class, a negative sign marks inhibitory curves
[12] = Table S3, confirmatory screen, negative = inhibition
[13] = qHTS primary screen hits, Table S2, negative = inhibition
[14] = qHTS primary screen hits, Table S2, negative sign = inhibitory curve, several classes where COUNT > 1
[15] = Table S3, counterscreen, qHTS curve class, a negative sign marks inhibitory curves
[16] = Table S3, counterscreen, read-out: IC50 [μM] (counterscreen)
[17] = qHTS primary screen hits, Table S2, read-out: IC50

`Cl.N=C(NCCCCCCNC(=N)NC(=N)Nc1ccc(Cl)cc1)NC(=N)Nc1ccc(Cl)cc1` [NCGC00016246-13] was tested, and the “Efficacy (%) (counterscreen)” value ([1]; counterscreen) was -37%, the “Curve Class (counterscreen)” value [1, 3] was -1.2 and the IC50 [1, 4] was 22.4 µM. The “Efficacy (%) (confirmatory screen)” value ([2]; confirmatory screen) was -57%, the “Confirm? (confirmatory screen)” value ([2]; confirmatory screen, YES/NO) was “YES” and the “Curve Class (confirmatory screen)” value [2, 5] was -2.2. For the same compound, the IC50 [2, 6] was 35.5 µM, the “Efficacy (%)” value [2, 7] was -37% and the “Curve Class” value [2, 8] was -2.2. It also gave an IC50 [2, 9] of 50.1 µM.
With `C=C(CC)C(=O)c1ccc(OCC(=O)O)c(Cl)c1Cl` [NCGC00016260-13] the “Efficacy (%) (counterscreen)” value ([1]; counterscreen) was 0%, the “Confirm? (counterscreen)” value ([1]; counterscreen) was “YES” and the “Curve Class (counterscreen)” value [1, 3] was 4. For the same compound, the “Efficacy (%) (confirmatory screen)” value ([2]; confirmatory screen) was -56%, the “Confirm? (confirmatory screen)” value ([2]; confirmatory screen, YES/NO) was “YES” and the “Curve Class (confirmatory screen)” value [2, 5] was -2.4. For the same compound, the IC50 [2, 6] was 44.7 µM, the “Efficacy (%)” value [2, 7] was -28% and the “Curve Class” value [2, 8] was -1.2. It also gave an IC50 [2, 9] of 1.3 µM.
For `Nc1ccc(O)c(C(=O)O)c1` [NCGC00016344-07], the “Efficacy (%) (counterscreen)” value [1, 10] was 154%, the “Curve Class (confirmatory screen)” value [2, 11] was 4 and the “Efficacy (%) (confirmatory screen)” value [2, 12] was -27%. The “Efficacy (%)” value [2, 13] was -58% and the “Curve Class” value [2, 14] was -2.2.
`CN(C(=O)CN(CCO)CC(=O)N(C)C(C)(C)Cc1ccccc1)C(C)(C)Cc1ccccc1` [NCGC00016382-07] was tested, and the “Efficacy (%) (counterscreen)” value ([1]; counterscreen) was -33%, the “Curve Class (counterscreen)” value [1, 3] was -2.4 and the IC50 [1, 4] was 70.8 µM. For the same compound, the “Efficacy (%) (confirmatory screen)” value ([2]; confirmatory screen) was -52%, the “Confirm? (confirmatory screen)” value ([2]; confirmatory screen, YES/NO) was “YES” and the “Curve Class (confirmatory screen)” value [2, 5] was -3. The IC50 [2, 6] was 79.4 µM, the “Efficacy (%)” value [2, 7] was -59% and the “Curve Class” value [2, 8] was -3. It also gave an IC50 [2, 9] of 28.2 µM.
With `CCCCCCCCCCCCCCCC[N+](C)(C)CCN(Cc1ccc(OC)cc1)c1ncccn1.[Br-]` [NCGC00016507-05] the “Curve Class (counterscreen)” value [1, 15] was 3, the “Efficacy (%) (counterscreen)” value [1, 10] was 100% and the IC50 [1, 16] was 89.1 µM. For the same compound, the “Curve Class (confirmatory screen)” value [2, 11] was 4, the “Efficacy (%) (confirmatory screen)” value [2, 12] was -36% and the “Efficacy (%)” value [2, 13] was -71%. For the same compound, the “Curve Class” value ([2]; qHTS primary screen hits, Table S2, negative sign = inhibitory curve) was -2.2 and the IC50 [2, 17] was 79.4 µM.
`COc1ccc2[nH]c([S+]([O-])Cc3ncc(C)c(OC)c3C)nc2c1` (stereo not drawn) [NCGC00016925-10] was tested, and the “Curve Class (counterscreen)” value [1, 15] was -2.2, the “Efficacy (%) (counterscreen)” value [1, 10] was -57% and the IC50 [1, 16] was 35.5 µM. The “Confirm? (confirmatory screen)” value ([2]; Table S3, confirmatory screen, YES/NO call) was “YES”, the “Curve Class (confirmatory screen)” value [2, 11] was -1.2 and the “Efficacy (%) (confirmatory screen)” value [2, 12] was -58%. The IC50 ([2]; Table S3, confirmatory screen, read-out: IC50 [μM] (confirmatory screen)) was 28.2 µM, the “Efficacy (%)” value [2, 13] was -35% and the “Curve Class” value [2, 14] was -2.2. It also gave an IC50 [2, 17] of 10.8 µM.
In the case of `O=c1cc(-c2ccccc2)oc2cc(O)c(O)c(O)c12` [NCGC00017236-08], the “Efficacy (%) (counterscreen)” value ([1]; counterscreen) is reported as -64%, the IC50 [1, 4] is reported as 39.8 µM and the “Efficacy (%) (confirmatory screen)” value ([2]; confirmatory screen) is reported as -112%. For the same compound, the IC50 [2, 6] was 39.8 µM, the “Efficacy (%)” value [2, 13] was -30% and the IC50 [2, 17] was 34.1 µM.
In the case of `CN1C[C@H](CNC(=O)OCc2ccccc2)C[C@@H]2c3cccc4c3c(cn4C)C[C@H]21` [NCGC00017257-10], the “Efficacy (%) (counterscreen)” value ([1]; counterscreen) is reported as -32%, the “Confirm? (counterscreen)” value ([1]; counterscreen) is reported as “YES” and the “Curve Class (counterscreen)” value [1, 3] is reported as -2.4. The IC50 [1, 4] was 63.1 µM, the “Efficacy (%) (confirmatory screen)” value ([2]; confirmatory screen) was -126% and the “Confirm? (confirmatory screen)” value ([2]; confirmatory screen, YES/NO) was “YES”. The “Curve Class (confirmatory screen)” value [2, 5] was -2.1, the IC50 [2, 6] was 44.7 µM and the “Efficacy (%)” value [2, 7] was -75%. For the same compound, the IC50 [2, 9] was 36.4 µM.
For `O=C(O)c1cc(O)c2c(c1)C(=O)c1cccc(O)c1C2=O` [NCGC00018199-06], the “Efficacy (%) (counterscreen)” value ([1]; counterscreen) was -61%, the “Curve Class (counterscreen)” value [1, 3] was -1.2 and the “Efficacy (%) (confirmatory screen)” value ([2]; confirmatory screen) was -66%. The “Confirm? (confirmatory screen)” value ([2]; confirmatory screen, YES/NO) was “YES”, the “Curve Class (confirmatory screen)” value [2, 5] was -1.2 and the “Efficacy (%)” value [2, 13] was -32%. The “Curve Class” value [2, 14] was -2.2.
With `CC(=O)Oc1cccc2c1C(=O)c1c(OC(C)=O)cc(C(=O)O)cc1C2=O` [NCGC00018274-05] the “COUNTERSCREEN Efficacy (%)” value ([1]; scrambled-peptide counterscreen) was -53%, the “COUNTERSCREEN Confirm?” value ([1]; scrambled-peptide counterscreen, YES/NO call) was “YES” and the “COUNTERSCREEN Curve Class” value ([1]; scrambled-peptide counterscreen, qHTS curve class) was -2.4. For the same compound, the IC50 ([1]; scrambled-peptide counterscreen, read-out: COUNTERSCREEN IC50) was 50.1 µM, the “CONFIRMATORY SCREEN Confirm?” value ([2]; confirmatory screen, YES/NO call) was “YES” and the “CONFIRMATORY SCREEN Curve Class” value [2, 5] was -1.4. For the same compound, the “CONFIRMATORY SCREEN Efficacy (%)” value ([2]; confirmatory screen, negative = inhibition) was -50%, the IC50 ([2]; confirmatory screen, read-out: CONFIRMATORY SCREEN IC50) was 11.2 µM and the “Efficacy (%)” value [2, 13] was -39%. The “Curve Class” value [2, 14] was -2.4 and the IC50 [2, 17] was 39.8 µM.
`CC[C@@H](CO)NC(=O)[C@@H]1C=C2c3cccc4c3c(cn4C)C[C@H]2N(C)C1.O=C(O)/C=C\C(=O)O` [NCGC00024027-06] was tested, and the “Efficacy (%) (counterscreen)” value ([1]; counterscreen) was -73%, the “Curve Class (counterscreen)” value [1, 3] was -3 and the IC50 [1, 4] was 89.1 µM. The “Efficacy (%) (confirmatory screen)” value ([2]; confirmatory screen) was -88%, the “Confirm? (confirmatory screen)” value ([2]; confirmatory screen, YES/NO) was “YES” and the “Curve Class (confirmatory screen)” value [2, 5] was -2.2. The IC50 [2, 6] was 44.7 µM.
With `CN(C)CCCn1cc(C2=C(c3c[nH]c4ccccc34)C(=O)NC2=O)c2ccccc21` [NCGC00024760-07] the “Efficacy (%) (counterscreen)” value ([1]; counterscreen) was -54%, the “Curve Class (counterscreen)” value [1, 3] was -2.2 and the IC50 [1, 4] was 35.5 µM. The “Efficacy (%) (confirmatory screen)” value ([2]; confirmatory screen) was -63%, the “Confirm? (confirmatory screen)” value ([2]; confirmatory screen, YES/NO) was “YES” and the “Curve Class (confirmatory screen)” value [2, 5] was -2.2. The IC50 [2, 6] was 44.7 µM, the “Efficacy (%)” value [2, 7] was -53% and the “Curve Class” value [2, 8] was -2.2. For the same compound, the IC50 [2, 9] was 39.8 µM.
`CN1CCc2cccc3c2[C@H]1Cc1ccc(O)c(O)c1-3` [NCGC00025349-05] was tested, and the “Curve Class (counterscreen)” value [1, 15] was 4, the “Efficacy (%) (counterscreen)” value [1, 10] was -34% and the “Curve Class (confirmatory screen)” value [2, 11] was 4. For the same compound, the “Efficacy (%) (confirmatory screen)” value [2, 12] was -17%, the “Efficacy (%)” value [2, 13] was -58% and the “Curve Class” value [2, 14] was -2.4. The IC50 [2, 17] was 12.6 µM.
In the case of `CCOC(=O)c1cc(-c2ccco2)nc2c1c(C)nn2CCC#N.O=C(O)C(F)(F)F` [NCGC00037529-03], the “Efficacy (%) (counterscreen)” value ([1]; counterscreen) is reported as -56%, the “Curve Class (counterscreen)” value [1, 3] is reported as -2.4 and the IC50 [1, 4] is reported as 56.2 µM. The “Efficacy (%) (confirmatory screen)” value ([2]; confirmatory screen) was -61%, the “Confirm? (confirmatory screen)” value ([2]; confirmatory screen, YES/NO) was “YES” and the “Curve Class (confirmatory screen)” value [2, 5] was -2.2. For the same compound, the IC50 [2, 6] was 50.1 µM, the “Efficacy (%)” value [2, 7] was -27% and the IC50 [2, 9] was 39.8 µM.
